{"source": "paper PMC6979384", "about": "“Characterization of the plant homeodomain (PHD) reader family for their histone tail interactions” (Epigenetics & Chromatin, 2020)", "test_in_all_cases": "Histone peptide microarray", "type_in_all_cases": "binding, human", "key": {"BAZ2B": {"tested_on": "BAZ2B", "conditions": "BAZ2B; sheet \"Array Heatmap\"; each array performed twice, total n = 4", "excerpt": "(§1) To more comprehensively define the histone interactions of the 31 PHD readers identified from the domain microarray analyses, we probed each on an alternate microarray platform containing a library of 293 synthetic histone peptides with single or combinatorial PTMs (Additional file 2: Figure S4 and Additional file 3: Table S2).\n(§2) The 31 GST-tagged PHD readers identified in the PHD finger domain array were expressed and purified as previously. Histone peptide arrays and peptide pulldown assays were conducted as recently described (specifically, the optimized protocol from Petell et al. for the former).\n(§3) Supplementary file 13072_2020_328_MOESM3_ESM.xlsx: Additional file 3: Table S2. […] Excel Tab Peptide List is a compiled list of the entire 293 histone peptide library with amino acid sequence ranges. […] Each number corresponds to the peptide number designated in Peptide List. Excel Tab Average Signals is a compiled set of binding data: chromatin reader at 0.5 μM vs. entire 293 peptide library. Data is presented as the average and standard deviation of 4 replicates. The average signals are colored to indicate signal intensity with green being strong and white being weak/low. […] Key: red= stronger relative binding; blue = weaker relative binding. Excel Tab Array info summary is a table summarizing the domains, sequence coverage, array signal range, and noise for each of the GST-tagged readers assayed on the peptide microarrays."}, "PHF21A": {"tested_on": "PHF21A", "conditions": "PHF21A; sheet \"Array Heatmap\"; each array performed twice, total n = 4", "excerpt": "as §1, §2, §3"}, "BPTF (PB)": {"tested_on": "BPTF (PB)", "conditions": "BPTF (PB); sheet \"Array Heatmap\"; each array performed twice, total n = 4", "excerpt": "as §1, §2, §3"}, "KDM7A": {"tested_on": "KDM7A", "conditions": "KDM7A; sheet \"Array Heatmap\"; each array performed twice, total n = 4", "excerpt": "as §1, §2, §3"}, "KDM5B (3)": {"tested_on": "KDM5B (3)", "conditions": "KDM5B (3); sheet \"Array Heatmap\"; each array performed twice, total n = 4", "excerpt": "as §1, §2, §3"}, "PHF8": {"tested_on": "PHF8", "conditions": "PHF8; sheet \"Array Heatmap\"; each array performed twice, total n = 4", "excerpt": "as §1, §2, §3"}, "KDM5A (3)": {"tested_on": "KDM5A (3)", "conditions": "KDM5A (3); sheet \"Array Heatmap\"; each array performed twice, total n = 4", "excerpt": "as §1, §2, §3"}, "KDM5B (1)": {"tested_on": "KDM5B (1)", "conditions": "KDM5B (1); sheet \"Array Heatmap\"; each array performed twice, total n = 4", "excerpt": "as §1, §2, §3"}, "TRIM66 (PB)": {"tested_on": "TRIM66 (PB)", "conditions": "TRIM66 (PB); sheet \"Array Heatmap\"; each array performed twice, total n = 4", "excerpt": "as §1, §2, §3"}, "PHRF1 (RP)": {"tested_on": "PHRF1 (RP)", "conditions": "PHRF1 (RP); sheet \"Array Heatmap\"; each array performed twice, total n = 4", "excerpt": "as §1, §2, §3"}, "ING2": {"tested_on": "ING2", "conditions": "ING2; sheet \"Array Heatmap\"; each array performed twice, total n = 4", "excerpt": "as §1, §2, §3"}, "RAG2": {"tested_on": "RAG2", "conditions": "RAG2; sheet \"Array Heatmap\"; each array performed twice, total n = 4", "excerpt": "as §1, §2, §3"}, "DIDO1": {"tested_on": "DIDO1", "conditions": "DIDO1; sheet \"Array Heatmap\"; each array performed twice, total n = 4", "excerpt": "as §1, §2, §3"}, "AIRE (PP)": {"tested_on": "AIRE (PP)", "conditions": "AIRE (PP); sheet \"Array Heatmap\"; each array performed twice, total n = 4", "excerpt": "as §1, §2, §3"}, "TAF3": {"tested_on": "TAF3", "conditions": "TAF3; sheet \"Array Heatmap\"; each array performed twice, total n = 4", "excerpt": "as §1, §2, §3"}, "ING5": {"tested_on": "ING5", "conditions": "ING5; sheet \"Array Heatmap\"; each array performed twice, total n = 4", "excerpt": "as §1, §2, §3"}, "PHF23": {"tested_on": "PHF23", "conditions": "PHF23; sheet \"Array Heatmap\"; each array performed twice, total n = 4", "excerpt": "as §1, §2, §3"}, "ING4": {"tested_on": "ING4", "conditions": "ING4; sheet \"Array Heatmap\"; each array performed twice, total n = 4", "excerpt": "as §1, §2, §3"}, "CHD5 (PCC)": {"tested_on": "CHD5 (PCC)", "conditions": "CHD5 (PCC); sheet \"Array Heatmap\"; each array performed twice, total n = 4", "excerpt": "as §1, §2, §3"}, "PHF2": {"tested_on": "PHF2", "conditions": "PHF2; sheet \"Array Heatmap\"; each array performed twice, total n = 4", "excerpt": "as §1, §2, §3"}, "DPF2 (PPC2W2)": {"tested_on": "DPF2 (PPC2W2)", "conditions": "DPF2 (PPC2W2); sheet \"Array Heatmap\"; each array performed twice, total n = 4", "excerpt": "as §1, §2, §3"}, "ING3": {"tested_on": "ING3", "conditions": "ING3; sheet \"Array Heatmap\"; each array performed twice, total n = 4", "excerpt": "as §1, §2, §3"}, "SP140L": {"tested_on": "SP140L", "conditions": "SP140L; sheet \"Array Heatmap\"; each array performed twice, total n = 4", "excerpt": "as §1, §2, §3"}, "MORC3 (CW)": {"tested_on": "MORC3 (CW)", "conditions": "MORC3 (CW); sheet \"Array Heatmap\"; each array performed twice, total n = 4", "excerpt": "as §1, §2, §3"}, "KDM4C (TTP)": {"tested_on": "KDM4C (TTP)", "conditions": "KDM4C (TTP); sheet \"Array Heatmap\"; each array performed twice, total n = 4", "excerpt": "as §1, §2, §3"}, "MLL5": {"tested_on": "MLL5", "conditions": "MLL5; sheet \"Array Heatmap\"; each array performed twice, total n = 4", "excerpt": "as §1, §2, §3"}, "ING1": {"tested_on": "ING1", "conditions": "ING1; sheet \"Array Heatmap\"; each array performed twice, total n = 4", "excerpt": "as §1, §2, §3"}, "PHF13": {"tested_on": "PHF13", "conditions": "PHF13; sheet \"Array Heatmap\"; each array performed twice, total n = 4", "excerpt": "as §1, §2, §3"}, "CHD4 (PPCC)": {"tested_on": "CHD4 (PPCC)", "conditions": "CHD4 (PPCC); sheet \"Array Heatmap\"; each array performed twice, total n = 4", "excerpt": "as §1, §2, §3"}, "CHD5 (PPCC)": {"tested_on": "CHD5 (PPCC)", "conditions": "CHD5 (PPCC); sheet \"Array Heatmap\"; each array performed twice, total n = 4", "excerpt": "as §1, §2, §3"}, "KDM5A (1)": {"tested_on": "KDM5A (1)", "conditions": "KDM5A (1); sheet \"Array Heatmap\"; each array performed twice, total n = 4", "excerpt": "as §1, §2, §3"}}, "data": [{"substance": "H3.3K27bhb (15-34): H3.3 15-34", "values": [{"measurement": "Array Heatmap value (peptide array signal)", "setting": "BAZ2B", "value": 0.4313}, {"measurement": "Array Heatmap value (peptide array signal)", "setting": "PHF21A", "value": 0.4386}, {"measurement": "Array Heatmap value (peptide array signal)", "setting": "BPTF (PB)", "value": 0.3432}, {"measurement": "Array Heatmap value (peptide array signal)", "setting": "KDM7A", "value": 0.312}, {"measurement": "Array Heatmap value (peptide array signal)", "setting": "KDM5B (3)", "value": 0.4143}, {"measurement": "Array Heatmap value (peptide array signal)", "setting": "PHF8", "value": 0.363}, {"measurement": "Array Heatmap value (peptide array signal)", "setting": "KDM5A (3)", "value": 0.404}, {"measurement": "Array Heatmap value (peptide array signal)", "setting": "KDM5B (1)", "value": 0.6279}, {"measurement": "Array Heatmap value (peptide array signal)", "setting": "TRIM66 (PB)", "value": 0.6188}, {"measurement": "Array Heatmap value (peptide array signal)", "setting": "PHRF1 (RP)", "value": 0.4098}, {"measurement": "Array Heatmap value (peptide array signal)", "setting": "ING2", "value": 0.6144}, {"measurement": "Array Heatmap value (peptide array signal)", "setting": "RAG2", "value": 0.2325}, {"measurement": "Array Heatmap value (peptide array signal)", "setting": "DIDO1", "value": 0.6388}, {"measurement": "Array Heatmap value (peptide array signal)", "setting": "AIRE (PP)", "value": 0.4047}, {"measurement": "Array Heatmap value (peptide array signal)", "setting": "TAF3", "value": 0.2621}, {"measurement": "Array Heatmap value (peptide array signal)", "setting": "ING5", "value": 0.34}, {"measurement": "Array Heatmap value (peptide array signal)", "setting": "PHF23", "value": 0.5306}, {"measurement": "Array Heatmap value (peptide array signal)", "setting": "ING4", "value": 0.4357}, {"measurement": "Array Heatmap value (peptide array signal)", "setting": "CHD5 (PCC)", "value": 0.7166}, {"measurement": "Array Heatmap value (peptide array signal)", "setting": "PHF2", "value": 0.5233}, {"measurement": "Array Heatmap value (peptide array signal)", "setting": "DPF2 (PPC2W2)", "value": 0.6281}, {"measurement": "Array Heatmap value (peptide array signal)", "setting": "ING3", "value": 0.4499}, {"measurement": "Array Heatmap value (peptide array signal)", "setting": "SP140L", "value": 0.3378}, {"measurement": "Array Heatmap value (peptide array signal)", "setting": "MORC3 (CW)", "value": 0.3496}, {"measurement": "Array Heatmap value (peptide array signal)", "setting": "KDM4C (TTP)", "value": 0.4386}, {"measurement": "Array Heatmap value (peptide array signal)", "setting": "MLL5", "value": 0.5648}, {"measurement": "Array Heatmap value (peptide array signal)", "setting": "ING1", "value": 0.5173}, {"measurement": "Array Heatmap value (peptide array signal)", "setting": "PHF13", "value": 0.6011}, {"measurement": "Array Heatmap value (peptide array signal)", "setting": "CHD4 (PPCC)", "value": 0.5447}, {"measurement": "Array Heatmap value (peptide array signal)", "setting": "CHD5 (PPCC)", "value": 0.5245}, {"measurement": "Array Heatmap value (peptide array signal)", "setting": "KDM5A (1)", "value": 0.4361}]}]}
